These results are taken from publication PMC3134853, “In Vitro and In Vivo Study of Poly(ethylene glycol) Conjugated Ibuprofen to Extend the Duration of Action” (Scientia Pharmaceutica, 2011).

For data set [1] the following is noted: cited from earlier work.
Data set [2] in a line: Determination of drug solubility (distilled water and phosphate buffer pH 7.4). In kind it is physicochemical. The settings on record: UV 222 nm. The procedure: This suspension was stirred at room temperature for 24 hours with a Rota spin test tube Roter. After that the containers (test tubes) were left overnight for saturation. Then these saturated solutions were centrifuged at 10000 rpm the help of macro centrifuge and the supernatant was filtered via Whatman filter paper. The concentration of Ibuprofen was determined spectrophotometrically at 222 nm.

The conditions of data set [3]: oral administration; cited from earlier work.
The test system of data set [4] is acetic acid induced writhing in mice. Kind of data set: Writhing induced by acetic acid (analgesic activity). In kind it is in vivo, Swiss albino mice. The note with it: oral, 3 h prior to acetic acid, Ibuprofen 20 mg/kg or molecular equivalent dose of conjugate.
Protocol: Analgesic activity was carried out by using acetic acid induced writhing method in Swiss albino mice (25–30 g) of either sex. A 1% v/v solution of acetic acid was used to induce writhing. Test compounds were administered orally 3 h prior to acetic acid injection. Number of writhing for 10 min in control and test compounds were counted and compared. […] Acetic acid was administered intraperitoneally 1 ml/100 g body weight of the animal. Analgesic activity was measured as percent decrease in writhing in comparison to control. The percent Inhibition was calculated using the following equation: % Inhibition = 100 − number of writhings in test/number of writhings in control×100
Analgesic activity was carried out by using acetic acid induced writhing method in Swiss albino mice (25–30 g) of either sex. A 1% v/v solution of acetic acid was used to induce writhing. Test compounds were administered orally 3 h prior to acetic acid injection.
The subject of data set [5] is carrageenan-induced paw edema in rats. As to the kind of experiment: Carrageenan-induced paw edema (anti-inflammatory activity). In kind it is in vivo. The note with it: Wistar rats, oral, mean ± SEM. How it is done:
All the animals were obtained from the animal house of the Department of Pharmacology, […] College of Pharmacy, Mandsaur and its animal facility is approved by […]. No. 918/ac/05/CPCSEA). The experimental protocols for the same have been approved by Institutional Animal Ethics Committee. The analgesic activity was carried out on Swiss albino mice by the Siegmund et al. method; anti-inflammatory activity of the compounds was carried out on Wistar rats by the Winter et al. method. The anti-inflammatory activity was evaluated using carrageenan-induced paw edema on rat method. To evaluate the anti-inflammatory activity of the conjugates 4 groups (n = 6) of Wistar rats (150-200 g) were examined. […] A stock solution of 0.2, 0.52 and 2.14 mg ml^-1 was prepared as a homogeneous suspension in aqueous solution of sodium CMC (0.5% w/v) and each animal received 2.0- 2.2 ml of the respective drugs orally. Thirty minutes after administration of drugs, each rat received a subplanter injection of 0.1 ml of 1% carrageenan solution in its left hind paw. The swelling volume of the paw was measured before (time 0) and at 0.5, 1, 2, 3, 4, 24 h after the carrageenan injection. The measurement of the hind paw volume was carried out using an Ugo Basile Plethysmometer before any treatment (Vo) and in any interval (Vt) after the administration of the drugs. The percentage increase in the paw volume was calculated from the normal paw volume. The percentage of swelling inhibition was calculated using: Inhibition (%) = (Vt - Vo)control - (Vt - Vo)treated/(Vt - Vo)×100 (Vt and Vo relates to the average volume in the hind paw of the rats (n = 6) before any treatment and after anti-inflammatory agent treatment, respectively.
(In the carrageenan paw model, swelling and tenderness develop within hours.)

SMILES strings stand for the structures. ≈ marks a conversion by molar mass, not a printed value. Read-outs that look alike come from different tables or passages of the source.

As usually defined, the solubility is the dissolved amount per volume that the medium holds.

For `CC(C)Cc1ccc(C(C)C(=O)O)cc1` (centres unmarked) [Ibuprofen, 2-(4-iso-butylphenyl)-propanoic acid], the “Solubility in water (in words)” value in data set [1] is recorded as “poorly soluble in water”. Also, the solubility at 24 h turned out to be 10.6 µg/mL (≈ 51.2 µM) in data set [2] (distilled water, room temperature, read-out: Solubility in distilled water) and 25.2 µg/mL (≈ 122 µM) in data set [2] (phosphate buffer pH 7.4, room temperature, read-out: Solubility in phosphate buffer (pH 7.4)). In addition, the “Time to reach maximal plasma concentration” value in data set [3] is ≤ 2 h. In data set [4], the “Percent inhibition (decrease) in writhing number versus control” value is reported as 59.61%. Further, the Paw edema volume was 0.33 ± 0.013 mL in data set [5] (1 hr, the values are: paw edema volume); 0.48 ± 0.017 mL in data set [5] (2 hr, the values are: paw edema volume); 0.38 ± 0.013 mL in data set [5] (3 hr, the values are: paw edema volume); 0.24 ± 0.009 mL in data set [5] (4 hr, the values are: paw edema volume); 0.15 ± 0.01 mL in data set [5] (8 hr, the values are: paw edema volume); 0.03 ± 0.013^ns in data set [5] (24 hr).
